Results published in US9657009B2, “Heteroaryl substituted pyridyl compounds useful as kinase modulators” (BRISTOL-MYERS SQUIBB COMPANY, priority 2012, dated 2017).
Like-named read-outs stand apart in the source and are kept apart here.

Target: IRAK4 (Homo sapiens (Human), UniProt Q9NWZ3)
Assay: IRAK4 Inhibition Assay
Assay type: biochemical
Experimental: IRAK4 Inhibition Assay The assays were performed in U-bottom 384-well plates. […] The reaction was initiated by the combination of IRAK4 with substrates and test compounds. The reaction mixture was incubated at room temperature for 60 min. and terminated by adding 45 μL of 35 mM EDTA to each sample.

[1] = ATP 500 μM, IRAK4 0.6 nM, 60 min at room temperature, read-out: IRAK4 IC50

Sequence of IRAK4 (Q9NWZ3 whole entry, species assumed): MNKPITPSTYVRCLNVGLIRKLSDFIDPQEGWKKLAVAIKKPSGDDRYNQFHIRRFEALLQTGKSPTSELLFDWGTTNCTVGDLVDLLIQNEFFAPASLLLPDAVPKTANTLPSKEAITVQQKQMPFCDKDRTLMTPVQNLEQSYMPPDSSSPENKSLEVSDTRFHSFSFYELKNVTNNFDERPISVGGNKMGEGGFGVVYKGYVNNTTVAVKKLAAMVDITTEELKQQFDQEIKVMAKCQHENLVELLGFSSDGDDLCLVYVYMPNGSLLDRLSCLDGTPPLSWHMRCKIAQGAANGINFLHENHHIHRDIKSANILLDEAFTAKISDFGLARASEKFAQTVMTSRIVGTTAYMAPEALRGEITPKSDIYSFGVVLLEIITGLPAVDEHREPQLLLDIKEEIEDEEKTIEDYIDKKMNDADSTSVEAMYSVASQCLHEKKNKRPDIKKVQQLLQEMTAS

| Compound | IC50 [1] [nM] | further results |
| --- | --- | --- |
| CC(C)(O)[C@H](F)CNC(=O)c1cnc(Nc2ncc(C(N)=O)cc2Cl)cc1NC1CCC(F)C1 (stereo partly drawn) [Example 38] | 4.5 | – |
| CC(C)(O)[C@H](F)CNC(=O)c1cnc(Nc2ccc(Cl)cn2)cc1NC1CC1 [Example 81] | 7.1 | – |
| CC(C)Nc1cc(Nc2ncc(C#N)cc2F)ncc1C(=O)NC1CCC(C(C)(O)C2CC2)CC1 (stereo not drawn) [Example 144] | – | IC50 (read-out: IRAK4 IC50, ATP 500 μM, IRAK4 0.6 nM, 60 min at room temperature): 7.8 nM |
| CC(C)(O)[C@H](F)CNC(=O)c1cnc(Nc2nc(-c3cccnc3)cs2)cc1NC1CC1 [Example 23, 4-(cyclopropylamino)-N-((2R)-2-fluoro-3-hydroxy-3-methylbutyl)-6-((4-(3-pyridinyl)-1,3-thiazol-2-yl)amino)nicotinamide] | – | IC50: 23.3 nM |
| CC(C)Nc1cc(Nc2ncc(C#N)cc2F)ncc1C(=O)NC[C@@H](F)C(C)(C)O [Example 17, 6-((5-cyano-3-fluoro-2-pyridinyl)amino)-N-((2R)-2-fluoro-3-hydroxy-3-methylbutyl)-4-(isopropylamino)nicotinamide] | 9.6 | – |
| CNC(=O)[C@H]1CC[C@H](NC(=O)c2cnc(Nc3ncc(C#N)cc3Cl)cc2NC2CC2)CC1 [Example 60] | 6.7 | – |
| CC(C)Nc1cc(Nc2ncc(C#N)cc2F)ncc1C(=O)N[C@H]1CC[C@H](S(C)(=O)=O)CC1 [Example 33, 6-((5-cyano-3-fluoropyridin-2-yl)amino)-4-(isopropylamino)-N-((1R,4R)-4-(methylsulfonyl)cyclohexyl)nicotinamide] | 10 | – |
| CC(C)Nc1cc(Nc2ccnc(N3CCC(F)C3)n2)ncc1C(=O)NC[C@@H](F)C(C)(C)O (stereo partly drawn) [Example 26, N-((2R)-2-fluoro-3-hydroxy-3-methylbutyl)-6-((2-(3-fluoro-1-pyrrolidinyl)-4-pyrimidinyl)amino)-4-(isopropylamino)nicotinamide] | 4.8 | – |
| CC(C)(O)C(F)(F)CNC(=O)c1cnc(Nc2ncc(C#N)cc2Cl)cc1NC1CC1 [Example 43, 6-((3-chloro-5-cyanopyridin-2-yl)amino)-4-(cyclopropylamino)-N-(2,2-difluoro-3-hydroxy-3-methylbutyl)nicotinamide] | 10.7 | – |
| CC(=O)N1CCC(NC(=O)c2cnc(Nc3ccc(C#N)cn3)cc2NC(C)C)CC1 [Example 8, N-(1-acetyl-4-piperidinyl)-6-((5-cyano-2-pyridinyl)amino)-4-(isopropylamino)nicotinamide] | 30.7 | – |
| CC(C)(F)CNc1cc(Nc2ncc(C#N)cc2Cl)ncc1C(=O)NC[C@@H](F)C(C)(C)O [Example 46] | 16.9 | – |
| CC(=O)N[C@H]1CC[C@H](NC(=O)c2cnc(Nc3ncc(C#N)cc3F)cc2NC(C)C)CC1 [Example 19, N-(trans-4-acetamidocyclohexyl)-6-((5-cyano-3-fluoro-2-pyridinyl)amino)-4-(isopropylamino)nicotinamide] | 4.8 | – |
| CCNc1cc(Nc2ncc(C#N)cc2Cl)ncc1C(=O)NC[C@@H](F)C(C)(C)O [Example 51] | 4.6 | – |

Continued, in another order:

| IC50 [1] [nM] | Compound | further results |
| --- | --- | --- |
| 12.4 | Cn1nnnc1-c1ccc(Nc2cc(Nc3ncc(C#N)cn3)ncc2C(=O)NC[C@@H](F)C(C)(C)O)cc1 [Example 147] | – |
| 5.3 | CC(C)(O)[C@H](F)CNC(=O)c1cnc(Nc2ncc(C#N)cc2Cl)cc1N[C@H]1CC[C@@](C)(O)CC1 [Example 152] | – |
| 1.4 | CC(C)(O)[C@H](F)CNC(=O)c1cnc(Nc2ncc(C#N)cc2Cl)cc1N[C@H]1CC[C@](C)(O)CC1 [Example 150] | – |
| 3.5 | CCCNc1cc(Nc2ncc(C#N)cc2Cl)ncc1C(=O)NC[C@@H](F)C(C)(C)O [Example 138] | – |
| 2.8 | CC(C)Nc1cc(Nc2ncc(C#N)cc2F)ncc1C(=O)N[C@H]1CC[C@H](C(=O)NC(C)C)CC1 [Example 116] | – |
| 10.5 | CC(C)(O)[C@H](F)CNC(=O)c1cnc(Nc2ncc(C#N)cc2F)cc1NC12CC3CC(CC(C3)C1)C2 [Example 119] | – |
| 3.8 | CCC(O)(CC)[C@H](F)CNC(=O)c1cnc(Nc2ncc(C#N)cn2)cc1NC(C)C [Example 117] | – |
| 17.5 | COC(=O)Cn1cc(Cl)c(Nc2cc(NC(C)C)c(C(=O)NC[C@@H](F)C(C)(C)O)cn2)n1 [Example 93] | – |
